Assay results as given in ChEMBL document CHEMBL1149579, “N-(5-chloro-2-(hydroxymethyl)-N-alkyl-arylsulfonamides as gamma-secretase inhibitors” (Bioorg Med Chem Lett, 2007).

System: not listed separately
Experiment: Drug level in Tg2576 betaAPP swedish transgenic mouse brain at 500 umol/kg, sc twice a day for 5 days
Format: ADME, organism-based
Conditions: read-out: Drug uptake

Molecule CCC[C@@H](C)N(c1cc(Cl)ccc1CO)S(=O)(=O)c1ccc(Cl)cc1 has a concentration at 120 h of 14 µM.

System: not listed separately
Experiment: Protein binding in rat plasma at 10 ug/mL
Format: ADME, cell-free
Conditions: read-out: PPB

With CCC[C@@H](C)N(c1cc(Cl)ccc1CO)S(=O)(=O)c1ccc(Cl)cc1 the fraction unbound at 10 ug/mL was under 0.01.

System: not listed separately
Experiment: Drug level in Tg2576 betaAPP swedish transgenic mouse plasma at 500 umol/kg, sc twice a day for 5 days
Format: ADME, organism-based
Conditions: not given

CCC[C@@H](C)N(c1cc(Cl)ccc1CO)S(=O)(=O)c1ccc(Cl)cc1 showed a concentration at 120 h of 21 µM.

System: Mus musculus
Experiment: Decrease in amyloid beta level in Tg2576 betaAPP swedish transgenic mouse brain at 500 umol/kg, sc twice a day for 5 days
Format: functional
Parameters: scale not given: the % may be the effect or the level left
Conditions: not given

CCC[C@@H](C)N(c1cc(Cl)ccc1CO)S(=O)(=O)c1ccc(Cl)cc1 gave an Activity of 38%.

System: not listed separately
Experiment: Drug level in Tg2576 betaAPP swedish transgenic mouse plasma at 500 umol/kg, po after 3 hrs
Format: ADME, organism-based
Conditions: not given

In the case of CCC[C@@H](C)N(c1cc(Cl)ccc1CO)S(=O)(=O)c1ccc(Cl)cc1, the concentration at 3 h is reported as 1.6 µM.

Target: Gamma-secretase
Experiment: Inhibition of gamma secretase-mediated beta-APP cleavage in human H4 cells assessed by measuring Abeta40 production by ELISA
Format: cell-based
Conditions: not given

First: CCN(c1cc(Cl)ccc1CO)S(=O)(=O)c1ccc(Cl)cc1
Second: CCCCN(c1cc(Cl)ccc1CO)S(=O)(=O)c1ccc(Cl)cc1
The IC50 of the first is 11-fold lower: 13 nM for the first, 140 nM for the second. The first is the more potent here.

First: CC(CCF)N(c1cc(Cl)ccc1CO)S(=O)(=O)c1ccc(Cl)cc1 (centres undefined)
Second: CC(CCCF)N(c1cc(Cl)ccc1CO)S(=O)(=O)c1ccc(Cl)cc1 (centres undefined)
The IC50 of the first is 3.6-fold higher: 25 nM for the first, 7 nM for the second. The second is the more potent here.

First: CCCC(C)N(c1cc(Cl)ccc1CO)S(=O)(=O)c1ccc(F)cc1 (centres undefined)
Second: CCCC(C)N(c1cc(Cl)ccc1CO)S(=O)(=O)c1ccc(Cl)cc1 (centres undefined)
The IC50 of the first is 3.5-fold higher: 66 nM for the first, 19 nM for the second.

Going from CCCC(C)N(c1cc(Cl)ccc1CO)S(=O)(=O)c1ccc(C(F)(F)F)cc1 (centres undefined) to CCCC(C)N(c1cc(Cl)ccc1CO)S(=O)(=O)c1ccc(C)cc1 (centres undefined), the IC50 falls from 72 nM to 40 nM (1.8-fold).

Compared with CCCC(C)N(c1cc(Cl)ccc1CO)S(=O)(=O)c1ccc(C#N)cc1 (centres undefined), CCC[C@H](C)N(c1cc(Cl)ccc1CO)S(=O)(=O)c1ccc(C)cc1 is 21-fold higher in IC50: 180 nM for the first, 3700 nM for the second.

First: CC(C1CC1)N(c1cc(Cl)ccc1CO)S(=O)(=O)c1ccc(Cl)cc1 (centres undefined)
Second: CC(C1CCC1)N(c1cc(Cl)ccc1CO)S(=O)(=O)c1ccc(Cl)cc1 (centres undefined)
The IC50 of the first is 4.1-fold higher: 49 nM for the first, 12 nM for the second. The second is the more potent here.

Compared with CCCC(C)N(c1cc(Cl)ccc1CO)S(=O)(=O)c1ccc(Cl)c(Cl)c1 (centres undefined), CCCC(C)N(c1cc(Cl)ccc1CO)S(=O)(=O)c1ccc(Cl)cc1Cl (centres undefined) is 2.3-fold higher in IC50: 240 nM for the first, 560 nM for the second. The first is the more potent here.

Compared with CC(c1ccc(Cl)cc1)N(c1cc(Cl)ccc1CO)S(=O)(=O)c1ccc(Cl)cc1 (centres undefined), CC(c1ccc2ccccc2c1)N(c1cc(Cl)ccc1CO)S(=O)(=O)c1ccc(Cl)cc1 (centres undefined) is 4.5-fold higher in IC50: 22 nM for the first, 100 nM for the second.

Going from CCCN(c1cc(Cl)ccc1CO)S(=O)(=O)c1ccc(C)cc1 to CCCCN(c1cc(Cl)ccc1CO)S(=O)(=O)c1ccc(C)cc1, the IC50 rises from 750 nM to 1300 nM (1.7-fold).

Cc1ccc(S(=O)(=O)N(CC(C)C)c2cc(Cl)ccc2CO)cc1 and Cc1ccc(S(=O)(=O)N(CCCC(C)C)c2cc(Cl)ccc2CO)cc1 are within 1.5-fold of each other in IC50: 700 nM for the first, 920 nM for the second.

First: Cc1ccc(S(=O)(=O)N(CCC(C)(C)C)c2cc(Cl)ccc2CO)cc1
Second: CCN(c1cc(Cl)ccc1CO)S(=O)(=O)c1ccc(C)cc1
The IC50 of the first is 1.8-fold higher: 2000 nM for the first, 1100 nM for the second.

Going from Cc1ccc(S(=O)(=O)N(c2cc(Cl)ccc2CO)C(C)CC(C)(C)C)cc1 (centres undefined) to CC[C@H](C)N(c1cc(Cl)ccc1CO)S(=O)(=O)c1ccc(C)cc1, the IC50 rises from 350 nM to 1300 nM (3.7-fold). The first is the more potent here.

Going from Cc1ccc(S(=O)(=O)N(c2cc(Cl)ccc2CO)C(C)C2CCCCC2)cc1 (centres undefined) to CC(C1CCCCC1)N(c1cc(Cl)ccc1CO)S(=O)(=O)c1ccc(Cl)cc1 (centres undefined), the IC50 falls from 190 nM to 33 nM (5.8-fold). The second is the more potent here.

Compared with CCC(CC)N(c1cc(Cl)ccc1CO)S(=O)(=O)c1ccc(C)cc1, CC[C@@H](C)N(c1cc(Cl)ccc1CO)S(=O)(=O)c1ccc(C)cc1 is 10-fold lower in IC50: 1000 nM for the first, 100 nM for the second. The second is the more potent here.

CCCC(C)N(c1cc(Cl)ccc1CO)S(=O)(=O)c1ccccc1 (centres undefined) and CCCC(C)N(c1cc(Cl)ccc1CO)S(=O)(=O)c1cccc(C)c1 (centres undefined) are the same in IC50: 1200 nM for the first, 1200 nM for the second.

First: CCCC(C)N(c1cc(Cl)ccc1CO)S(=O)(=O)c1ccc(C(C)C)cc1 (centres undefined)
Second: CCC[C@@H](C)N(c1cc(Cl)ccc1CO)S(=O)(=O)c1ccc(C)cc1
The IC50 of the first is 30-fold higher: 720 nM for the first, 24 nM for the second.

First: CC(Cc1ccccc1)N(c1cc(Cl)ccc1CO)S(=O)(=O)c1ccc(Cl)cc1 (centres undefined)
Second: C[C@H](CCc1ccccc1)N(c1cc(Cl)ccc1CO)S(=O)(=O)c1ccc(Cl)cc1
The IC50 of the first is 10-fold higher: 41 nM for the first, 4 nM for the second.

First: CC(C1CCCC1)N(c1cc(Cl)ccc1CO)S(=O)(=O)c1ccc(Cl)cc1 (centres undefined)
Second: C/C=C/C(C)N(c1cc(Cl)ccc1CO)S(=O)(=O)c1ccc(Cl)cc1 (centres undefined)
The IC50 of the first is 10-fold lower: 14 nM for the first, 140 nM for the second. The first is the more potent here.

Compared with CCCC[C@@H](C)N(c1cc(Cl)ccc1CO)S(=O)(=O)c1ccc(Cl)cc1, CC(C)CC(C)N(c1cc(Cl)ccc1CO)S(=O)(=O)c1ccc(Cl)cc1 (centres undefined) is 4.6-fold higher in IC50: 5 nM for the first, 23 nM for the second.

First: C=CC[C@@H](C)N(c1cc(Cl)ccc1CO)S(=O)(=O)c1ccc(Cl)cc1
Second: CCCC(C)N(c1cc(Cl)ccc1CO)S(=O)(=O)c1ccc(Br)cc1 (centres undefined)
The IC50 of the first is 4-fold lower: 14 nM for the first, 56 nM for the second.

Compared with CCCC(C)N(c1cc(Cl)ccc1CO)S(=O)(=O)c1c(Cl)cc(Cl)cc1Cl (centres undefined), CCCC(C)N(c1cc(Cl)ccc1CO)S(=O)(=O)c1ccc(OC)cc1 (centres undefined) is lower in IC50: over 25000 nM for the first, 1300 nM for the second.

Compared with Cc1ccc(S(=O)(=O)N(CC2CCCCC2)c2cc(Cl)ccc2CO)cc1, C=C(C)CN(c1cc(Cl)ccc1CO)S(=O)(=O)c1ccc(C)cc1 is 2.5-fold lower in IC50: 1000 nM for the first, 400 nM for the second. The second is the more potent here.

In the case of CCCC(C)N(c1cc(Cl)ccc1CO)S(=O)(=O)c1ccc(CC)cc1 (centres undefined), the IC50 is reported as 360 nM.

System: not listed separately
Experiment: Protein binding in human plasma at 10 ug/mL
Format: ADME, cell-free
Conditions: read-out: PPB

CCC[C@@H](C)N(c1cc(Cl)ccc1CO)S(=O)(=O)c1ccc(Cl)cc1 gave a fraction unbound at 10 ug/mL of under 0.01.

System: Mus musculus
Experiment: Decrease in amyloid beta level in Tg2576 betaAPP swedish transgenic mouse brain at 500 umol/kg, po after 3 hrs
Format: functional
Parameters: scale not given: the % may be the effect or the level left
Conditions: not given

Molecule CCC[C@@H](C)N(c1cc(Cl)ccc1CO)S(=O)(=O)c1ccc(Cl)cc1 has an Activity of 25%.

System: not listed separately
Experiment: Drug level in Tg2576 betaAPP swedish transgenic mouse brain at 500 umol/kg, po after 3 hrs
Format: ADME, organism-based
Conditions: read-out: Drug uptake

CCC[C@@H](C)N(c1cc(Cl)ccc1CO)S(=O)(=O)c1ccc(Cl)cc1 gave a concentration at 3 h of 5.2 µM.

System: not listed separately
Experiment: Protein binding in mouse plasma at 10 ug/mL
Format: ADME, cell-free
Conditions: read-out: PPB

CCC[C@@H](C)N(c1cc(Cl)ccc1CO)S(=O)(=O)c1ccc(Cl)cc1 showed a fraction unbound at 10 ug/mL of under 0.01.
